Read-outs that look alike come from different tables or passages of the source.
How the values were obtained:
[1] = system: (PLP) α-synuclein transgenic mice; settings: mouse, in vivo
Source text: (§1) Sections underwent the following immunohistochemical stainings: tyrosinehydroxylase antibody (Sigma) used to visualize dopaminergic neurons in SNc, dopamine and cyclic adenosine 3′,5′-monophosphate-regulated phosphoprotein 32 (DARPP-32)(New York Hospital-Cornell Medical Centre) used to visualize medium sized spiny neurons in striatum and Purkinje cells in cerebellar cortex, Glial Fibrillary Acidic Protein (GFAP)(Roche Diagnostics GmBH) used to visualize astroglial reaction, CD11b (Serotec) used to visualize microglial reaction and Bcl-2, Bcl-X1 and Bax apoptic/anti-apoptotic markers. One full series was stained with cresyl violet.
(§2) The following antibodies were used in this study: monoclonal anti-DARPP-32 (1:2000), monoclonal anti-TH (Sigma, St. Louis, Mo., 1:500), monoclonal anti-GFAP (Roche, Vienna, Austria 1:100), monoclonal anti-CD11b (Serotec, Oxford, UK, 1:100), polyclonal anti-activated capase 3 (Transduction Laboratories, Lexington, Ky., 1:200), monoclonal anti-Bax (Santa Cruz Biotechnology, 1:100), monoclonal anti-Bc12 (Santa Cruz Biotechnology, 1:100), and monoclonal anti-BclX (Chemicon, Temecula, Calif., 1:100). Secondary antibodies were biotinylated horse anti-mouse IgG, goat anti-rat IgG, or goat anti-rabbit IgG (Vector, Burlingame, Calif.). Immunohistochemical reaction was developed with 3,3′-diaminobenzidine.

[2] = system: (PLP) α-synuclein transgenic mice; settings: daily rating, whole experimental period
Experimental: Behavioral tests were performed blindly to the treatment status according to the following procedures and described in Fernagut et al.: clinical scale, stride length, spontaneous locomotor activity.
The groups were evaluated daily during the whole experimental period with a general motor score according to a previously published rating scale.
A previously described rating scale (Fernagut et al., Subacute systemic 3-nitropropionic acid intoxication induces a distinct motor disorder in adult C57B1/6 mice: Behavioural and histopathological characterization, Neuroscience 2002; 114:1005-17) was used for evaluation of hindlimb clasping, general locomotor activity, hindlimb dystonia, truncal dystonia and postural challenge response (0, normal; 1 slightly disturbed, and 2 markedly disabled). […] A total daily score per animal for each session was determined as well as a total sum score per animal per group for the whole testing period.

[3] = system: early Parkinson's disease patients; settings: rasagiline-treated subjects; cited from earlier work
[4] = system: (PLP) α-synuclein transgenic mice; settings: MSA mice (3-NP +), N=10
Source text: A suitable model for MSA is described by Stefanova et al. (Am. J. Pathol. March 2005, 166(3):869-76; Trends Neurosci. 2005, 28(9):501-6). This model acts by inducing oxidative stress in transgenic mice with oligodendroglial α-synuclein expression. […] The selective neuronal cell death pattern typical of MSA is achieved by combining mitochondrial inhibition by 3-nitropropionic acid (3-NP).
A total of 36 (PLP) α-synuclein transgenic mice over 6 months of age were used.
Chronic intoxication with 3-NP was done according to a previously used paradigm pathiology (i.e. 4×10 mg/kg, 4×20 mg/kg, 4×40 mg/kg, 4×50 mg/kg intraperitoneal injections every 12th hour for a period of two weeks) to model MSA pathology.
The mice were further divided into groups as follows: Control group (saline tested, n=10), low dose rasagiline group (0.6 mg/kg; n=10) and high dose rasagiline group ([…]; n=10). Rasagiline was delivered subcutaneously every 24 hours starting 24 hours one week before the intoxication with 3-NP and lasting for an additional week, i.e., for a total period of 4 weeks.

[5] = system: (PLP) α-synuclein transgenic mice
Experimental: The stride length of the hindlimbs of the mice was measured at baseline and before sacrificing them after a habituation to the test for 3 days before its performance. The limbs of each animal were wetted with a non-toxic food color and the mouse was let to run on a strip of paper (42 cm long, 4.5 cm wide) down a bright corridor towards a dark goal box. After four runs, the stride length of the forelimbs and the hindlimbs on each side was measured, excluding the beginning (7 cm) and the end (7 cm) of the run. The mean stride length for was determined.
Stride length test was performed on day 18-19 and day 27-28 after first 3-NP intoxication.

[6] = system: (PLP) α-synuclein transgenic mice; remark: listed apart in the source
Experimental: Neuropathological examination of the brains was performed after transcardial perfusion of 4% paraformaldehyde (PFA) under deep thiopental anesthesia. Brains were quickly removed, postfixed in the same fixative for 1 hour at 4° C., and then kept in 25% sucrose solution until they sunk. The brains were slowly frozen in with 2-methylbutan and kept at −80° C. until processing. Serial sections throughout the whole brain were cut on a freezing microtome (Leica, Nussloch, Germany).
as §1, §2
All morphometric analyses were done blinded to the treatment of the animal's observer. Stereology was applied using a computer-assisted image analysis system (Nikon E-800 microscope, Nikon digital camera DXM 1200; Stereo Investigator Software, MicroBrightField Europe e.K., Magdeburg, Germany). […] Purkinje cells in the cerebellum and glial reaction throughout the entire brain are analyzed to the Paxinos and Franklin mouse brain atlas (1997, Academic Press, San Diego). Purkinje cells were counted in a region outlined to include only the Purkinje cell layer (German et al., Degeneration of neurons and glia in the Niemann-Pick C mouse is unrelated to the low-density lipoprotein receptor. Neuroscience, 2001; 105:999-1005).

[7] = biological target: MAO-B (Mus musculus, UniProt Q8BW75); settings: for MAO-B activity (mean dpm ± SD): MSA mice, brain homogenate, 14C-PEA 10 μM, end of experiment
Experimental: (§3) Efficacy of Rasagiline treatment was determined by biochemical measurement of the inhibition of MAO-A and MAO-B activity in the different treatment groups. Two mice per group were sacrificed under deep thiopental anesthesia by cervical […]. Brains were immediately removed and snap-frozen in liquid nitrogen and further stored at −80° C. Tissue homogenates were preincubated with clorgyline or deprenyl in order to inhibit MAO-A or MAO-B respectively. Incubation was carried on with 14C-labeled PEA (10 μM) for MAO-B determination and 14C-HT (100 μM) for MAO-A determination. Reaction was stopped by acidification and labeled metabolites were extracted into toluene/ethyl acetate and counted by beta-counter.

[8] = biological target: MAO-A (Mus musculus, UniProt Q64133); settings: for MAO-A activity (mean dpm ± SD): MSA mice, brain homogenate, 14C-HT 100 μM, end of experiment
Experimental: as §3

[9] = system: (PLP) α-synuclein transgenic mice; settings: any of the time points studied (day 16, day 26)
Experimental: To test the locomotor activity of the mice we applied the Flex Field Activity System, (San Diego Instruments, San Diego, Calif.) which allows monitoring and real-time counting of horizontal and vertical locomotor activity by 544 photo-beam channels. Mice were placed in the center of the open field (40.5×40.5×36.5 cm) and tested for a 15 min period always at the same time of the day (5.00 p.m.). The tests were performed in a dark room that was completely isolated from external noises and light during the test period. The sum of counts in the horizontal and vertical plane at day 16 and on day 26 of the experiment was further analyzed.

[10] = system: (PLP) α-synuclein transgenic mice; settings: fourth week (day 25)
Experimental: The pole test (Id.; and Matsuura et al., Pole test is a useful method for evaluating the mouse movement disorder caused by striatal dopamine depletion, Journal of Neuroscience Methods 1997; 73:45-8) was performed on day 17 and day 25 of the experiment. Each mouse was habituated to the test the day before. A wooden vertical pole with rough surface, 1 cm wide and 50 cm high was applied. The mouse was placed with the head up at the top of the pole and the time for turning downwards (Tturn) as well as the total time for climbing down the pole until the mouse reached the floor with the four paws (Ttotal) was taken in 5 trials. The best performance of all the five trials was kept for the statistical analysis (Fernagut et al., In vivo models of multiple system atrophy, Mov Disord. 2005; 20 Suppl 12:S57-S63). If a mouse was unable to perform the test, a default value of 120 s was taken into account.

[11] = 2.5 mg/kg daily for 4 weeks, without reaching neuronal numbers of healthy controls

Chain of MAO-A (Q64133 whole entry): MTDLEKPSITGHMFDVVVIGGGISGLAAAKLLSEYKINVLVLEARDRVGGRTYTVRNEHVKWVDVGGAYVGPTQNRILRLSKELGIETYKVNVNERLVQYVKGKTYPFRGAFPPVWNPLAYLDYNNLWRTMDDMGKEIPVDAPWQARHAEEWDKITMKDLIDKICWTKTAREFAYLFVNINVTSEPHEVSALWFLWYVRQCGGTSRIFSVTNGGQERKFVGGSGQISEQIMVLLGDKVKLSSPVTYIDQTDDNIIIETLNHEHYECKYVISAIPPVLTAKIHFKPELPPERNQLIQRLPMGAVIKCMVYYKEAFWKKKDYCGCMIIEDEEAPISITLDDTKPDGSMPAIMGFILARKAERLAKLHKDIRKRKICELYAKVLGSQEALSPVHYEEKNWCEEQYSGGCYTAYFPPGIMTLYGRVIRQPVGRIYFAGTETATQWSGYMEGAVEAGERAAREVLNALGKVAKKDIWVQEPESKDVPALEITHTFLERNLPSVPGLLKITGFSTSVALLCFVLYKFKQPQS
Chain of MAO-B (Q8BW75 whole entry): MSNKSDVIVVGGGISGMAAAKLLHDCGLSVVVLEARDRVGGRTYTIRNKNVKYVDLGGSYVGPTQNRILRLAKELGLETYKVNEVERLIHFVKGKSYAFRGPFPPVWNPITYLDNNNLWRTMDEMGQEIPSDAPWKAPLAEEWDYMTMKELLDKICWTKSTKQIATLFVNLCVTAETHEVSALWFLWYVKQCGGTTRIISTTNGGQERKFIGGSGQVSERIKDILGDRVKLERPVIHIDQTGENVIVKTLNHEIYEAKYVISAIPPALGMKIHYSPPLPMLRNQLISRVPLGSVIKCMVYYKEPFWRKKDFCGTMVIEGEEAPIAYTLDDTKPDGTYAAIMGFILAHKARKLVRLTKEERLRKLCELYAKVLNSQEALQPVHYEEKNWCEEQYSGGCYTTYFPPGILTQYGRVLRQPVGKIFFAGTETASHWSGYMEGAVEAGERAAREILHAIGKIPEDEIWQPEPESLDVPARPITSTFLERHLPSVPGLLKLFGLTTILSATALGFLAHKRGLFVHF

C#CCN[C@@H]1CCc2ccccc21 [Rasagiline, R(+)-N-propargyl-1-aminoindan]
CD11b staining pattern (microglial activation), treated vs untreated mice [1]: No differences
GFAP staining pattern (astroglial activation), treated vs untreated mice [1]: No differences
general motor impairment (general motor score) [2]: significant improvement
most commonly reported adverse events [3]: pain, headache and dizziness
side effects typical of other dopaminergic medications (hallucinations, somnolence, edema, nausea, vomiting, diarrhea) [3]: infrequently reported
Mortality N (%) ([4]; Rasagiline 0.8 mg/kg b.w.): 2 (20) N (%)
Mortality N (%) ([4]; Rasagiline 2.5 mg/kg b.w.): 1 (10) N (%)
stride length ([5]; day 18-19): reversed shortened stride length
stride length ([5]; day 27-28): reversed stride length impairment
protection of Purkinje cells [6, 11]: partial protection
protection of neurons of the inferior olives [6, 11]: partial protection
protection of pontine nuclei against 3-NP intoxication ([6]; mouse, in vivo): completely protected
loss of striatal DARPP-32-immunoreactive medium spiny neurons ([6]; striatum, did not reach levels of non-intoxicated controls): partially prevented
loss of TH-immunopositive neurons in SNc ([6]; substantia nigra pars compacta): completely protected
MAO-B activity (mean dpm ± SD) ([7]; Rasagiline 0.8 mg/kg): 370.01 ± 321 dpm
MAO-B activity (mean dpm ± SD) ([7]; Rasagiline 2.5 mg/kg): 80.94 ± 14 dpm
inhibition of MAO activity (MAO-B) ([7]; both concentrations): significant inhibition
MAO-A activity (mean dpm ± SD) ([8]; Rasagiline 0.8 mg/kg): 1463.10 ± 219 dpm
MAO-A activity (mean dpm ± SD) ([8]; Rasagiline 2.5 mg/kg): 724.06 ± 65 dpm
inhibition of MAO activity (MAO-A) ([8]; both concentrations): significant inhibition
open field activity [9]: observed neither upon open field activity
rearing behavior [9]: nor on rearing behavior
pole test T-total (prolonged movement time) [10]: significantly reduced
pole test T-turn (prolonged movement time) [10]: significantly reduced

Reference: patent US8809310B2, “Use of rasagiline for the treatment of multiple system atrophy” (priority 2006, dated 2014)
